# What was measured:
# [1] = Reactivity test, water based black inkjet ink (FT-IR photopolymerization); conditions: 5.0% wt photoinitiator + 5.0% wt triethanolamine in water based black ink
# Procedure: The photopolymerizable compositions for the test were prepared by dissolving the photoinitiators and the co-initiator triethanolamine at a concentration of 5.0% wt each in a water based black ink for ink-jet printing. The reference compound Omnirad 819 DW (45% wt in water) (COMP-1) was dissolved at a concentration of 11% by weight to have the same amount of active content.
# (§1) The photopolymerizable compositions placed in the sample lodgment of a FT-IR (FT-IR 430-Jasco), were exposed to two different sources: • 1) a LED source (400 nm) located at a distance of 25 mm from the sample and at an angle of 30°. (Table 3) • 2) A Mercury lamp (160 W) located at a distance of 65 mm from the sample and at an angle of 30°. (Table 4)
# (§2) IR spectra were acquired at constant time intervals during the photopolymerization and the reduction over the time of the area of the peaks at 1408 cm^−1 and 810 cm^−1 assigned to the acrylic double bonds was determined using the IR software. This allows quantifying the degree of polymerization and therefore the efficiency of the photoinitiator.
# The results at 400 nm, expressed as % of polymerization over the time, are reported in Table 3 and the results with the Mercury lamp are reported in Table 4.
# [2] = Reactivity test, water based clear formulation (FT-IR photopolymerization); conditions: 3% wt photoinitiator + 3% wt triethanolamine in UCECOAT7200/Ebecryl 350 99:1
# Procedure: The photopolymerizable compositions for the test were prepared dissolving the photoinitiators and the co-initiator, triethanolamine, at a concentration of 3% by weight (wt) each in a mixture 99:1 wt of UCECOAT7200 and Ebecryl 350 (Allnex). The reference compound Omnirad 819 DW (45% wt in water) (COMP-1) was dissolved at a concentration of 6.6% by weight to have the same amount of active content.
# as §1, with “1)” for “3)”, “2)” for “4)”
# as §2, with “1408” for “1408 cm^−1”
# The results at 400 nm, expressed as % of polymerization over the time, are reported in Table 1 and the results with the Mercury lamp are reported in Table 2.
Structure (SMILES),"% of polymerization over the time ([1]; LED source 400 nm, 0.5 sec)","% of polymerization over the time ([1]; LED source 400 nm, 2 sec)","% of polymerization over the time ([1]; Mercury lamp 160 W, 0.2 sec)","% of polymerization over the time ([1]; Mercury lamp 160 W, 1 sec)","% of polymerization over the time ([2]; LED source 400 nm, 0.5 sec)","% of polymerization over the time ([2]; LED source 400 nm, 2 sec)","% of polymerization over the time ([2]; Mercury lamp 160 W, 0.2 sec)","% of polymerization over the time ([2]; Mercury lamp 160 W, 1 sec)"
COc1cc(OC)c2cc(C(=O)c3ccc(CC[N+]4(C)CCCCC4)cc3)c(=O)oc2c1.[Cl-] [Example 14],38%,62%,67%,89%,23%,27%,15%,23%
COc1cc(OC)c2cc(C(=O)c3ccc(CCC(=O)O)cc3)c(=O)oc2c1 [Example 8],–,–,–,–,7%,15%,9%,16%

# Source: patent publication US11485719B2, “Water soluble 3-ketocoumarins” (priority 2017, dated 2022)
